Data set [1] concerns the target VR1 (Homo sapiens, UniProt Q8NER1). The experiment in a line: Calcium uptake assay, low pH (proton) agonist. Type of data set: cell-based. Details: expressed in transfected cells; host or cells: T-REx HEK 293 (Invitrogen), pcDNA5/TO vector. To be noted: HEK293; 0.3 μM compound; low pH (protons) as agonist; HEK 293 cells expressing hVR1; read-out: Low pH % Inhib. @ 0.3 μM.

A short description of data set [2]: Pharmacokinetic evaluation following intravenous and oral administration in rats. Format: in vivo. To be noted: male, Sprague-Dawley, plasma, rat; for bioavailability: AUCinf (PO)/AUCinf (IV), dose normalized, PO 5 mg/kg, read-out: Oral Bioavailability F (%); for clearance: non-compartmental analysis, read-out: In vivo Clearance (converted). The protocol:
Male Sprague-Dawley rats are acclimatized for at least 24 hours prior to experiment initiation. During acclimation period, all animals receive food and water ad libitum. However, food but not water is removed from the animal's cages at least 12 hours before initiation of the experiment. During the first 3 hours of experimentation, the animals receive only water ad libitum. At least three animal each are tested for intravenous and oral dosage. For intravenous formulation, compounds were dissolved (0.25 to 1 mg/mL) in a mixture of 3% dimethyl sulfoxide, 40% PEG 400 and the rest percentage of 40% Captisol in water (w/v). For oral formulation, compounds of this invention are dissolved (2 mg/mL) in a mixture of 5% of 10% Tween 80 in water (v/v) and 95% of 0.5% methyl cellulose in water (w/v). The animals are weighed before dosing. The determined body weight is used to calculate the dose volume for each animal.
Dose volume(mL/kg)=1 mg/kg/formulation concentration(mg/mL)
In instances where the formulation concentrations were less than 0.5 mg/mL, the dosing volume is about 2 mL/kg. PO rats are typically dosed through oral gavage at 2.5 mL/kg to achieve a dose level of 5 mg/kg. For IV dosing, blood samples are collected (using a pre-heparinized syringe) via the jugular vein catheter at 2, 5, 15, 30, 60, 120, 180, 300, 480, and 1440 minutes post dosing. For PO dosing, blood samples are collected (using a pre-heparinized syringe) via the jugular vein catheter before dosing and at 5, 15, 30, 60, 120, 180, 300, 480, and 1440 minutes post dosing. About 250 uL of blood is obtained at each time point from the animal. Equal volumes of 0.9% normal saline are replaced to prevent dehydration. The whole blood samples are maintained on ice until centrifugation. Blood samples are then centrifuged at 14,000 rpm for 10 minutes at 4° C. and the upper plasma layer transferred into a clean vial and stored at −80° C. The resulting plasma samples are then analyzed by liquid chromatography-tandem mass spectrometry. Following the measurement of plasma samples and dosing solutions, plasma concentration-time curve is plotted. Plasma exposure is calculated as the area under the concentration-time curve extrapolated to time infinite (AUCinf). The AUCinf is averaged and the oral bioavailability (% F) for individual animal is calculated as:
AUCinf (PO)/AUCinf (IV), normalized to their respective dose levels. The % F is reported as the mean % F of all animals dosed orally with the compound of the invention at the specified level (Table 6).
In vivo clearance in the rat was calculated by conducting a non-compartmental analysis of the pharmacokinetic profile using WinNonlin software.

The structures appear in SMILES notation.

VR1, sequence (Q8NER1 whole entry): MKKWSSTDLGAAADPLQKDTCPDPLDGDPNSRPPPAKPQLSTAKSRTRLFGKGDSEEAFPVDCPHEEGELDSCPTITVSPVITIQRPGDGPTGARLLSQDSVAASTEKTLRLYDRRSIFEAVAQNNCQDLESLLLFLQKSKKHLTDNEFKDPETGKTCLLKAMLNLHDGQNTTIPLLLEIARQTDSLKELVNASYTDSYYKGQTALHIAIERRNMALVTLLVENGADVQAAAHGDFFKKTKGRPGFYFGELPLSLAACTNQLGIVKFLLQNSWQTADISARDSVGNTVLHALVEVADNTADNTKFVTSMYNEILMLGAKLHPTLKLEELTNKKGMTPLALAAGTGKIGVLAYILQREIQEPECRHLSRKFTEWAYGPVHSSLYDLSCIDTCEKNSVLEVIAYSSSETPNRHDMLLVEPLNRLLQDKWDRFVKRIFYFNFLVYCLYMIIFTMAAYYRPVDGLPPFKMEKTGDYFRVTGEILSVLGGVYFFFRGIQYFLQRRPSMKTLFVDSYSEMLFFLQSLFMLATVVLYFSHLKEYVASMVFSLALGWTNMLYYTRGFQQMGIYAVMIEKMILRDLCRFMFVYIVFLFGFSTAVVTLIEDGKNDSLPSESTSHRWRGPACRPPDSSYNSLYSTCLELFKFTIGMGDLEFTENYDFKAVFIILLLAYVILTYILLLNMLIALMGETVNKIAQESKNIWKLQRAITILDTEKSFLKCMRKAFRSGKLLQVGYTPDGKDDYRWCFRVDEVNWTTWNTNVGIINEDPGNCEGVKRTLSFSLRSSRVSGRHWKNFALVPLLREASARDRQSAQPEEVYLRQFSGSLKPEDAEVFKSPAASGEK

On to `Cc1cc(/C=C/C(F)(F)F)ccc1C(=O)Nc1ccc2ccc(O)nc2n1` [Compound 311, (E)-N-(7-hydroxy-1,8-naphthyridin-2-yl)-2-methyl-4-(3,3,3-trifluoroprop-1-en-1)benzamide], for which the inhibition at 0.3 µM in data set [1] was determined as 20%. As usually defined, the bioavailability is the share of a dose that reaches the circulation, judged against a reference dose that is usually intravenous. With `O=C(Nc1ccc2c(c1)OCC(CO)N2)c1ccc(C#CC2CCCC2)cc1F` (stereo not drawn) [Compound 126], in data set [2], the bioavailability amounted to 35% and the clearance is 44.9 mL/min/kg. Regarding `O=C(Nc1ccc2c(c1)OCC(CO)N2)c1ccc(/C=C/C(F)(F)F)cc1Cl` (stereo not drawn) [Compound 157], in data set [2], the bioavailability was 83% and the clearance is 15.6 mL/min/kg. For `Cc1cc(/C=C/C(F)(F)F)ccc1C(=O)Nc1ccc2cc(C(=O)O)cnc2c1` [Compound 301], the inhibition at 0.3 µM in data set [1] stood at 43%.

Take `O=C(Nc1ccc2c(c1)OCC(CO)N2)c1ccc(C#CC2CC2)cc1F` (stereo not drawn) [Compound 127]: in data set [2], the bioavailability was 66% and the clearance is 30.9 mL/min/kg. The like results for `Cc1cc(/C=C/C(F)(F)F)ccc1C(=O)Nc1ccc2c(c1)OCC(CO)N2` (stereo not drawn) [Compound 131] were, in that order, over 100% and 21.6 mL/min/kg. The like results for `Cc1cc(C#CC(C)(C)C)ccc1C(=O)Nc1cccc2cnccc12` [Compound 163] were, in that order, 53% and 110 mL/min/kg.

Take `CC(C)(C)C#Cc1ccc(C(=O)Nc2ccc3c(c2)OCC(CO)N3)c(Cl)c1` (stereo not drawn) [Compound 158]: in data set [2], the bioavailability amounted to 42% and the clearance is 13 mL/min/kg.

As for `CS(=O)(=O)c1cc(C#CC2CCCC2)ccc1C(=O)Nc1ccc2c(c1)OCCO2` [Compound 159], the inhibition at 0.3 µM in data set [1] turned out to be 0%. Regarding `Cc1cc(/C=C/C(F)(F)F)ccc1C(=O)Nc1ccc2c(c1)OCCN2` [Compound 118], the clearance in data set [2] was 17.7 mL/min/kg. With `CC(C)(C)C#Cc1ccc(C(=O)Nc2ccc3c(c2)OCC(CO)N3)c(F)c1` (stereo not drawn) [Compound 138], in data set [2], the bioavailability worked out at 36% and the clearance is 38.7 mL/min/kg. The like results for `Cc1cc(C#CC2CC2)ccc1C(=O)Nc1ccc2c(c1)OCC(CO)N2` (stereo not drawn) [Compound 124] were, in that order, 67% and 20.7 mL/min/kg. Consider `COc1cc(/C=C/C(F)(F)F)ccc1C(=O)Nc1ccc2c(c1)OCCO2` [Compound 123], for which, in data set [2], the clearance was 32 mL/min/kg. In the case of `Cc1cc(C#CC(C)(C)C)ccc1C(=O)Nc1ccc2c(c1)OC[C@@H](CO)N2` [Compound 184], in data set [2], the bioavailability amounted to 17% and the clearance was 35.2 mL/min/kg.

On to `CC(C)(C)C#Cc1ccc(C(=O)Nc2cnc3ccccc3c2)c(Cl)c1` [Compound 164], for which, in data set [2], the bioavailability came out at 1% and the clearance was 33.5 mL/min/kg. Take `C/C(=C\c1ccc(C(=O)Nc2cnc3ccccc3c2)c(C)c1)C(F)(F)F` [Compound 316]: the inhibition at 0.3 µM in data set [1] came to 52%. On to `O=C(Nc1ccc2c(c1)OCCN2)c1ccc(/C=C/C(F)(F)F)cc1F` [Compound 134], for which, in data set [2], the bioavailability is 63% and the clearance is 85.1 mL/min/kg. For the compound `Cc1cc(C#CC(C)(C)C)ccc1C(=O)Nc1cccc2c(Cl)nccc12` [Compound 199], the inhibition at 0.3 µM in data set [1] stood at 67%. Take `Cc1cc(/C=C/C(F)(F)F)ccc1C(=O)Nc1cnc2cc(C(C)(C)O)cnc2c1` [Compound 326, (E)-N-(7-(2-hydroxypropan-2-yl)-1,5-naphthyridin-3-yl)-2-methyl-4-(3,3,3-trifluoroprop-1-enyl)benzamide]: in data set [1], the inhibition at 0.3 µM turned out to be 6.76%.

As to `Cc1cc(/C=C/C(F)(F)F)ccc1C(=O)Nc1ccc2c(c1)C(=O)N(CCO)C2=O` [Compound 404, (E)-N-(2-(2-hydroxyethyl)-1,3-dioxoisoindolin-5-yl)-2-methyl-(3,3,3-trifluoroprop-1-enyl)benzamide], the inhibition at 0.3 µM in data set [1] turned out to be 10%. On to `Cc1cc(/C=C/C(F)(F)F)ccc1C(=O)Nc1ccc2c(CO)n[nH]c2c1` [Compound 231], for which the inhibition at 0.3 µM in data set [1] was 0%.

As for `Cc1cc(/C=C/C(F)(F)F)ccc1C(=O)Nc1cnc2c(c1)CC(O)CC2` (stereo not drawn) [Compound 315, (E)-N-(6-hydroxy-5,6,7,8-tetrahydroquinolol-3-yl)-2-methyl-4-(3,3,3-trifluoroprop-1-enyl)benzamide], the inhibition at 0.3 µM in data set [1] turned out to be 51.3%. For `O=C(Nc1ccc2c(c1)OCC(CO)N2)c1c(F)cc(C#CC2CC2)cc1F` (stereo not drawn) [Compound 129], in data set [2], the bioavailability amounted to 68% and the clearance is 1.88 mL/min/kg. Consider `Cc1cc(/C=C/C(F)(F)F)ccc1C(=O)Nc1ccc2c(c1)N(C(=O)C(C)(C)C)CC2` [Compound 405, (E)-N-[1-(2,2-dimethyl-propionyl)-2,3-dihydro-1H-indol-6-yl]-2-methyl-4-(3,3,3-trifluoro-prop-1-enyl)benzamide], for which the inhibition at 0.3 µM in data set [1] is 14%.

Regarding `CC(C)(C)C#Cc1ccc(C(=O)Nc2ccc3c(c2)OC[C@H](CO)N3)c(F)c1` [Compound 172], in data set [2], the bioavailability was determined as 76% and the clearance is 41.2 mL/min/kg. Take `Cc1cc(/C=C/C(F)(F)F)ccc1C(=O)Nc1cnc2cc(C(C)O)cnc2c1` (stereo not drawn) [Compound 320, (E)-N-(7-(1-hydroxyethyl)-1,5-naphthyridin-3-yl)-2-methyl-4-(3,33-trifluoroprop-1-enyl)benzamide]: in data set [1], the inhibition at 0.3 µM is 47%.

In the case of `CC(=O)N1CCCc2ccc(NC(=O)c3ccc(/C=C/C(F)(F)F)cc3C)cc21` [Compound 322, (E)-N-(1-acetyl-1,2,3,4-tetrahydroquinolin-7-yl)-2-methyl-4-(3,3,3-trifluoroprop-1-enyl)benzamide], the inhibition at 0.3 µM in data set [1] amounted to 42.7%. Turning to `Cc1nc2cc(NC(=O)c3ccc(C#CC(C)(C)C)cc3C)ccc2s1` [Compound 162], in data set [2], the bioavailability was determined as 2% and the clearance was 44.3 mL/min/kg.

Consider `O=C(Nc1ccc2c(c1)OCC(CO)N2)c1ccc(/C=C/C(F)(F)F)cc1F` (stereo not drawn) [Compound 144], for which, in data set [2], the bioavailability worked out at 68% and the clearance was 31.5 mL/min/kg. Consider `Cc1nc2cc(NC(=O)c3ccc(/C=C/C(F)(F)F)cc3C)ccc2s1` [Compound 188], for which, in data set [2], the bioavailability came to 8% and the clearance was 7.7 mL/min/kg.

As for `Cc1cc(/C=C/C(F)(F)F)ccc1C(=O)Nc1cnc2[nH]ccc2c1` [Compound 230], in data set [2], the bioavailability worked out at 17% and the clearance was 15.3 mL/min/kg. For `COc1cc(/C=C/C(F)(F)F)ccc1C(=O)Nc1ccc2c(c1)OCCN2` [Compound 122], the clearance in data set [2] is 61 mL/min/kg.

Consider `O=C(Nc1ccc2c(c1)OCCN2)c1ccc(C#CC2CC2)nc1Cl` [Compound 119], for which, in data set [1], the inhibition at 0.3 µM stood at 0%. Still for that read-out and setting: in the case of `Cc1cc(/C=C/C(F)(F)F)ccc1C(=O)Nc1ccc2c(c1)N(C(=O)C1CC1)CC2` [Compound 402, (E)-N-(1-cyclopropanecarbonyl-2,3-dihydro-1H-indol-6-yl)-2-methyl-4-(3,3,3-trifluoro-prop-1-enyl)benzamide] it was 0%. Turning to `O=C(Nc1ccc2c(c1)OCC(CO)N2)c1ccc(C#CC2CC2)cc1Cl` (stereo not drawn) [Compound 156], the inhibition at 0.3 µM in data set [1] was found to be 102%. `O=C(Nc1cccc2cnccc12)c1ccc(/C=C/C(F)(F)F)cc1F` [Compound 160]: in data set [2], the bioavailability is 22% and the clearance is 85.4 mL/min/kg. The like results for `Cc1cc(C#CC(C)(C)C)ccc1C(=O)Nc1cnc2ccccc2c1` [Compound 181] were, in that order, 1% and 41.8 mL/min/kg. Consider `Cc1cc(C#CC2CCCC2)ccc1C(=O)Nc1ccc2c(c1)OCC(CO)N2` (stereo not drawn) [Compound 125], for which, in data set [2], the bioavailability was determined as 17% and the clearance was 33.7 mL/min/kg. For the compound `Cc1cc(/C=C/C(F)(F)F)ccc1C(=O)Nc1cnc2ncccc2c1` [Compound 321, (E)-2-methyl-N-(1,8-naphthyridin-3-yl)-4-(3,3,3-trifluoroprop-1-enyl)benzamide], in data set [1], the inhibition at 0.3 µM was 41.5%. On to `Cc1cc(/C=C/C(F)(F)F)ccc1C(=O)Nc1ccc2cc(CO)cnc2c1` [Compound 228], for which, in data set [2], the bioavailability came to 39% and the clearance was 37.4 mL/min/kg. The like results for `Cc1cc(/C=C/C(F)(F)F)ccc1C(=O)Nc1ccc2cccnc2c1` [Compound 224] were, in that order, over 100% and 9.97 mL/min/kg.
